Patent US20060252740A1 (priority 2005, published 2006)

Assays:
[1] = Stability of diluted drug product; format: physicochemical; conditions: drug product at a dilution of 1:7, room temperature
[2] = tested on: patients with advanced solid tumors; conditions: cited from earlier work
[3] = tested on: patients with solid tumors and lymphomas; conditions: cited from earlier work

C=CCNC1=C2C[C@@H](C)C[C@H](OC)[C@H](O)[C@@H](C)/C=C(\C)[C@H](OC(N)=O)[C@@H](OC)/C=C\C=C(/C)C(=O)NC(=CC1=O)C2=O [17-AAG, 17-Allylamino-17-demethoxygeldanamycin]
stability after dilution [1]: up to 10 hours
toxicities observed ([2]; dose of 395 mg/m^2): nausea and vomiting secondary to pancreatitis and grade 3 fatigue
17-AAG metabolized to 17-AG (metabolic clearance) ([2]; population PK analysis): 46.4%
Vd (volume of distribution), central compartment ([2]; population PK analysis): 24.2 L
Vd (volume of distribution), peripheral compartment ([2]; population PK analysis): 89.6 L
objective tumor responses ([2]; to date): No objective tumor responses
levels of Hsp90 client proteins ([3]; during therapy): unchanged during therapy
objective tumor responses ([3]; to date): No objective tumor responses
MTD ([3]; weekly 17-AAG, 3 weeks out of a 4 week cycle): 308 mg/m^2
dose reached without significant toxicity ([3]; weekly dosing): 112 mg/m^2
